Laboratory results as given in US20050101595A1, “N-containing cycloalkyl-substituted amino-thiazole derivatives and pharmaceutical compositions for inhibiting cell proliferation and methods for their use” (PFIZER INC., priority 2003, published 2005).

Tests used:
CDK2/Cyclin A = CDK2/Cyclin A (Homo sapiens, UniProt P24941); assay: Inhibition of CDK2/Cyclin A Retinoblastoma Kinase Activity; assay type: biochemical; details: at 0.03 μM
How it was run: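 Radiometric filter-binding readout of phosphate transfer to an Rb substrate fragment by purified CDK2/truncated cyclin A at 10 or 19 nM. Run at pH 7.4 with 25 μM ATP, 30 °C, 60–75 min, linear rates; background without enzyme subtracted, Ki from competitive-inhibition models.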

[1] = target: human CDK4 and genetically truncated (1-264) cyclin D3 (Homo sapiens, UniProt P11802); assay: Inhibition of CDK4/Cyclin D Retinoblastoma Kinase Activity; assay type: biochemical; details: at 0.03 μM
Chain of human CDK4 and genetically truncated (1-264) cyclin D3 (P11802 whole entry, the tested form may be a part): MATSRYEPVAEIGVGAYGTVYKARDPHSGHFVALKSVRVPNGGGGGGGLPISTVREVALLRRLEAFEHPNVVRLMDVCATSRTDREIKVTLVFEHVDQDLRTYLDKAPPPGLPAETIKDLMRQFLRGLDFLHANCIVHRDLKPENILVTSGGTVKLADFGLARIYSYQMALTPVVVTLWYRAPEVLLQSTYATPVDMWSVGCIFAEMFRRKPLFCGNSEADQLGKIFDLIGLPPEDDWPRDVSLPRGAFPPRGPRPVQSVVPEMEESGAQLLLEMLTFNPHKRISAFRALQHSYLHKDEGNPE
Chain of human CDK4 and genetically truncated (1-264) cyclin D3 (P30281 1-264 partner): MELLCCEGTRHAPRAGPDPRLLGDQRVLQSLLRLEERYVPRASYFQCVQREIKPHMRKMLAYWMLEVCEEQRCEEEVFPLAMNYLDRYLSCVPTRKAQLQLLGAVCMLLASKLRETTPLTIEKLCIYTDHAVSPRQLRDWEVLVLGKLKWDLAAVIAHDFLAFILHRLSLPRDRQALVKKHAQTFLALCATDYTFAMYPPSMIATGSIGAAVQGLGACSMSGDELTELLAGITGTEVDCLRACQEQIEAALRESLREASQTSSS
How it was run: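 Apparent Ki values come from competitive or competitive tight-binding inhibition fits of background-corrected 32P/33P incorporation into His-tagged Rb fragment (386-928), captured on nitrocellulose. Reaction: 5 nM insect-cell-expressed human CDK4 with cyclin D3 (1-264), 25 μM ATP, pH 7.4 HEPES, 2% DMSO, 30° C., 20 min, extended to 60 min for tight-binding inhibitors.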

HCT-116 cell line = assay: Inhibition of cell growth, tetrazolium salt (MTT) assay; assay type: cell-based; details: HCT-116 cells
How it was run: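 Cells in McCoy's 5A medium were left 4 h, then given graded compound concentrations in 0.5% (v/v) DMSO and incubated three to five days at 37° C (5% CO2). MTT was added to 0.2 mg/mL for 4 h more; DMSO-solubilized formazan was read at 540 nm against 0.5% DMSO-only controls.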

| Compound | CDK2 % Inhibition at 0.03 μM (CDK2/Cyclin A) [%] | CDK4 % Inhibition at 0.03 μM [1] [%] | HCT-116 % Inhibition at 0.1 μM (HCT-116 cell line) [%] | HCT-116 5 Inhibition at 0.25 μM (HCT-116 cell line) |
| --- | --- | --- | --- | --- |
| Nc1nc(NC2CCN(C(=O)CC3CCCC3)CC2)sc1C(=O)c1c(F)cccc1F [Example R96] | −20 | −18 | 2 | 36 |
| Nc1nc(NC2CCN(C(=O)CCC3CCCC3)CC2)sc1C(=O)c1c(F)cccc1F [Example R97] | 13 | 17 | 0 | 39 |
| Nc1nc(NC2CCN(C(=O)CC3C=CCC3)CC2)sc1C(=O)c1c(F)cccc1F (stereo not drawn) [Example R98] | 8 | 11 | 0 | 44 |
| CC1(C(=O)N2CCC(Nc3nc(N)c(C(=O)c4c(F)cccc4F)s3)CC2)CCCCC1 [Example R99] | −5 | −4 | 5 | 49 |
| Nc1nc(NC2CCN(C(=O)CC3CCCCC3)CC2)sc1C(=O)c1c(F)cccc1F [Example R100] | −5 | 10 | 0 | 49 |
| Nc1nc(NC2CCN(C(=O)CCC3CCCCC3)CC2)sc1C(=O)c1c(F)cccc1F [Example R101] | 15 | 39 | 7 | 45 |
| Nc1nc(NC2CCN(C(=O)CCCC3CCCCC3)CC2)sc1C(=O)c1c(F)cccc1F [Example R102] | 18 | 34 | 0 | 43 |
| Nc1nc(NC2CCN(C(=O)c3ccccc3)CC2)sc1C(=O)c1c(F)cccc1F [Example R103] | 4 | 18 | 0 | 45 |
| Nc1nc(NC2CCN(C(=O)c3ccccc3F)CC2)sc1C(=O)c1c(F)cccc1F [Example R104] | 5 | −8 | 0 | 38 |
| Nc1nc(NC2CCN(C(=O)c3c(F)cccc3F)CC2)sc1C(=O)c1c(F)cccc1F [Example R105] | 8 | 9 | 0 | 44 |
| Nc1nc(NC2CCN(C(=O)c3cccc(Cl)c3Cl)CC2)sc1C(=O)c1c(F)cccc1F [Example R106] | 2 | 19 | 2 | 72 |
| Nc1nc(NC2CCN(C(=O)c3ccc(Cl)cc3Cl)CC2)sc1C(=O)c1c(F)cccc1F [Example R107] | 44 | 63 | 8 | 48 |
| Nc1nc(NC2CCN(C(=O)c3cc(Cl)ccc3Cl)CC2)sc1C(=O)c1c(F)cccc1F [Example R108] | 56 | 72 | 5 | 58 |
| Nc1nc(NC2CCN(C(=O)c3c(F)cccc3Cl)CC2)sc1C(=O)c1c(F)cccc1F [Example R109] | 21 | 34 | 14 | 47 |
| Nc1nc(NC2CCN(C(=O)c3c(Cl)cccc3Cl)CC2)sc1C(=O)c1c(F)cccc1F [Example R110] | 24 | 30 | 3 | 48 |
